Assay: Stability of cannabinoid and Vitamin E components of Beverage 1 (AB White) stored at 8° C. and 21-25° C., LCMSMS over 570 days
Assay type: physicochemical
Conditions: for Stability in AB White, 8° C. (content by LCMSMS): beverage stored at 8° C.; for Stability in AB White, 21-25° C. (content by LCMSMS): beverage stored at 21-25° C.
Procedure: The LCMSMS was calibrated for 0-1000 ng/ml cannabinoids with the same resin material used in the preparation of the concentrates. At each time period, 100 ml of beverage was diluted with 10 ml of methanol and injected into the LCMSMS for analysis.

## CCCCCc1cc(O)c(C/C=C(\C)CCC=C(C)C)c(O)c1 [CBG, cannabigerol]
Day 0
  Stability in AB White, 8° C. (content by LCMSMS): 4.87 µg/mL
  Stability in AB White, 21-25° C. (content by LCMSMS): 4.87 µg/mL
Day 1
  Stability in AB White, 8° C. (content by LCMSMS): 4.74 µg/mL
  Stability in AB White, 21-25° C. (content by LCMSMS): 4.73 µg/mL
Day 2
  Stability in AB White, 8° C. (content by LCMSMS): 4.91 µg/mL
  Stability in AB White, 21-25° C. (content by LCMSMS): 4.72 µg/mL
Day 3
  Stability in AB White, 8° C. (content by LCMSMS): 4.74 µg/mL
  Stability in AB White, 21-25° C. (content by LCMSMS): 4.75 µg/mL
Day 5
  Stability in AB White, 8° C. (content by LCMSMS): 4.88 µg/mL
  Stability in AB White, 21-25° C. (content by LCMSMS): 4.89 µg/mL
Day 8
  Stability in AB White, 8° C. (content by LCMSMS): 4.86 µg/mL
  Stability in AB White, 21-25° C. (content by LCMSMS): 4.90 µg/mL
Day 9
  Stability in AB White, 8° C. (content by LCMSMS): 4.89 µg/mL
  Stability in AB White, 21-25° C. (content by LCMSMS): 4.79 µg/mL
Day 10
  Stability in AB White, 8° C. (content by LCMSMS): 4.77 µg/mL
  Stability in AB White, 21-25° C. (content by LCMSMS): 4.68 µg/mL
Day 11
  Stability in AB White, 8° C. (content by LCMSMS): 4.87 µg/mL
  Stability in AB White, 21-25° C. (content by LCMSMS): 4.74 µg/mL
Day 12
  Stability in AB White, 8° C. (content by LCMSMS): 4.87 µg/mL
  Stability in AB White, 21-25° C. (content by LCMSMS): 4.88 µg/mL
Day 15
  Stability in AB White, 8° C. (content by LCMSMS): 4.81 µg/mL
  Stability in AB White, 21-25° C. (content by LCMSMS): 4.87 µg/mL
Day 16
  Stability in AB White, 8° C. (content by LCMSMS): 4.84 µg/mL
  Stability in AB White, 21-25° C. (content by LCMSMS): 4.80 µg/mL
Day 17
  Stability in AB White, 8° C. (content by LCMSMS): 4.78 µg/mL
  Stability in AB White, 21-25° C. (content by LCMSMS): 4.80 µg/mL
Day 18
  Stability in AB White, 8° C. (content by LCMSMS): 4.81 µg/mL
  Stability in AB White, 21-25° C. (content by LCMSMS): 4.72 µg/mL
Day 19
  Stability in AB White, 8° C. (content by LCMSMS): 4.83 µg/mL
  Stability in AB White, 21-25° C. (content by LCMSMS): 4.68 µg/mL
Day 22
  Stability in AB White, 8° C. (content by LCMSMS): 4.75 µg/mL
  Stability in AB White, 21-25° C. (content by LCMSMS): 4.68 µg/mL
Day 23
  Stability in AB White, 8° C. (content by LCMSMS): 4.89 µg/mL
  Stability in AB White, 21-25° C. (content by LCMSMS): 4.85 µg/mL
Day 24
  Stability in AB White, 8° C. (content by LCMSMS): 4.83 µg/mL
  Stability in AB White, 21-25° C. (content by LCMSMS): 4.80 µg/mL
Day 25
  Stability in AB White, 8° C. (content by LCMSMS): 4.89 µg/mL
  Stability in AB White, 21-25° C. (content by LCMSMS): 4.86 µg/mL
Day 26
  Stability in AB White, 8° C. (content by LCMSMS): 4.77 µg/mL
  Stability in AB White, 21-25° C. (content by LCMSMS): 4.78 µg/mL
Day 29
  Stability in AB White, 8° C. (content by LCMSMS): 4.91 µg/mL
  Stability in AB White, 21-25° C. (content by LCMSMS): 4.76 µg/mL
Day 30
  Stability in AB White, 8° C. (content by LCMSMS): 4.79 µg/mL
  Stability in AB White, 21-25° C. (content by LCMSMS): 4.73 µg/mL
Day 60
  Stability in AB White, 8° C. (content by LCMSMS): 4.68 µg/mL
  Stability in AB White, 21-25° C. (content by LCMSMS): 4.83 µg/mL
Day 90
  Stability in AB White, 8° C. (content by LCMSMS): 4.66 µg/mL
  Stability in AB White, 21-25° C. (content by LCMSMS): 4.65 µg/mL
Day 120
  Stability in AB White, 8° C. (content by LCMSMS): 4.89 µg/mL
  Stability in AB White, 21-25° C. (content by LCMSMS): 4.59 µg/mL
Day 150
  Stability in AB White, 8° C. (content by LCMSMS): 4.83 µg/mL
  Stability in AB White, 21-25° C. (content by LCMSMS): 4.63 µg/mL
Day 180
  Stability in AB White, 8° C. (content by LCMSMS): 4.71 µg/mL
  Stability in AB White, 21-25° C. (content by LCMSMS): 4.79 µg/mL
Day 210
  Stability in AB White, 8° C. (content by LCMSMS): 4.73 µg/mL
  Stability in AB White, 21-25° C. (content by LCMSMS): 4.75 µg/mL
Day 240
  Stability in AB White, 8° C. (content by LCMSMS): 4.69 µg/mL
  Stability in AB White, 21-25° C. (content by LCMSMS): 4.79 µg/mL
Day 270
  Stability in AB White, 8° C. (content by LCMSMS): 4.72 µg/mL
  Stability in AB White, 21-25° C. (content by LCMSMS): 4.62 µg/mL
Day 300
  Stability in AB White, 8° C. (content by LCMSMS): 4.74 µg/mL
  Stability in AB White, 21-25° C. (content by LCMSMS): 4.67 µg/mL
Day 330
  Stability in AB White, 8° C. (content by LCMSMS): 4.69 µg/mL
  Stability in AB White, 21-25° C. (content by LCMSMS): 4.71 µg/mL
Day 360
  Stability in AB White, 8° C. (content by LCMSMS): 4.66 µg/mL
  Stability in AB White, 21-25° C. (content by LCMSMS): 4.69 µg/mL
Day 390
  Stability in AB White, 8° C. (content by LCMSMS): 4.68 µg/mL
  Stability in AB White, 21-25° C. (content by LCMSMS): 4.70 µg/mL
Day 420
  Stability in AB White, 8° C. (content by LCMSMS): 4.66 µg/mL
  Stability in AB White, 21-25° C. (content by LCMSMS): 4.72 µg/mL
Day 450
  Stability in AB White, 8° C. (content by LCMSMS): 4.68 µg/mL
  Stability in AB White, 21-25° C. (content by LCMSMS): 4.73 µg/mL
Day 480
  Stability in AB White, 8° C. (content by LCMSMS): 4.64 µg/mL
  Stability in AB White, 21-25° C. (content by LCMSMS): 4.46 µg/mL
Day 510
  Stability in AB White, 8° C. (content by LCMSMS): 4.49 µg/mL
  Stability in AB White, 21-25° C. (content by LCMSMS): 4.51 µg/mL
Day 540
  Stability in AB White, 8° C. (content by LCMSMS): 4.53 µg/mL
  Stability in AB White, 21-25° C. (content by LCMSMS): 4.48 µg/mL
Day 570
  Stability in AB White, 8° C. (content by LCMSMS): 4.46 µg/mL
  Stability in AB White, 21-25° C. (content by LCMSMS): 4.47 µg/mL

Source: patent US20240415914A1, “Water Dispersible Cannabinoid Compositions” (priority 2021, published 2024)
